Key:
[1] = Cytotoxicity against Homo sapiens (human) MCF7/ADR cells assessed as inhibition of cell proliferation after 48 hr by SRB assay; assay type: cell-based, NCI/ADR-RES; settings: for IC10: human
[2] = molecular target: ATP-dependent translocase ABCB1 (Homo sapiens, UniProt P08183); experiment: Inhibition of P-glycoprotein in Homo sapiens (human) MCF7/ADR cells assessed as doxorubicin-induced growth inhibition after 48 hr by SRB assay (Doxorubicin Rvb = 5.1 +/-1.2%); assay type: cell-based; settings: nci/adr-res
MCF7 = experiment: Cytotoxicity against Homo sapiens (human) MCF7 cells assessed as inhibition of cell proliferation after 48 hr by SRB assay; assay type: cell-based; settings: mcf7, 48 h
[3] = Homo sapiens, NCI/ADR-RES, 48 h

Sequence of ATP-dependent translocase ABCB1 (P08183 whole entry): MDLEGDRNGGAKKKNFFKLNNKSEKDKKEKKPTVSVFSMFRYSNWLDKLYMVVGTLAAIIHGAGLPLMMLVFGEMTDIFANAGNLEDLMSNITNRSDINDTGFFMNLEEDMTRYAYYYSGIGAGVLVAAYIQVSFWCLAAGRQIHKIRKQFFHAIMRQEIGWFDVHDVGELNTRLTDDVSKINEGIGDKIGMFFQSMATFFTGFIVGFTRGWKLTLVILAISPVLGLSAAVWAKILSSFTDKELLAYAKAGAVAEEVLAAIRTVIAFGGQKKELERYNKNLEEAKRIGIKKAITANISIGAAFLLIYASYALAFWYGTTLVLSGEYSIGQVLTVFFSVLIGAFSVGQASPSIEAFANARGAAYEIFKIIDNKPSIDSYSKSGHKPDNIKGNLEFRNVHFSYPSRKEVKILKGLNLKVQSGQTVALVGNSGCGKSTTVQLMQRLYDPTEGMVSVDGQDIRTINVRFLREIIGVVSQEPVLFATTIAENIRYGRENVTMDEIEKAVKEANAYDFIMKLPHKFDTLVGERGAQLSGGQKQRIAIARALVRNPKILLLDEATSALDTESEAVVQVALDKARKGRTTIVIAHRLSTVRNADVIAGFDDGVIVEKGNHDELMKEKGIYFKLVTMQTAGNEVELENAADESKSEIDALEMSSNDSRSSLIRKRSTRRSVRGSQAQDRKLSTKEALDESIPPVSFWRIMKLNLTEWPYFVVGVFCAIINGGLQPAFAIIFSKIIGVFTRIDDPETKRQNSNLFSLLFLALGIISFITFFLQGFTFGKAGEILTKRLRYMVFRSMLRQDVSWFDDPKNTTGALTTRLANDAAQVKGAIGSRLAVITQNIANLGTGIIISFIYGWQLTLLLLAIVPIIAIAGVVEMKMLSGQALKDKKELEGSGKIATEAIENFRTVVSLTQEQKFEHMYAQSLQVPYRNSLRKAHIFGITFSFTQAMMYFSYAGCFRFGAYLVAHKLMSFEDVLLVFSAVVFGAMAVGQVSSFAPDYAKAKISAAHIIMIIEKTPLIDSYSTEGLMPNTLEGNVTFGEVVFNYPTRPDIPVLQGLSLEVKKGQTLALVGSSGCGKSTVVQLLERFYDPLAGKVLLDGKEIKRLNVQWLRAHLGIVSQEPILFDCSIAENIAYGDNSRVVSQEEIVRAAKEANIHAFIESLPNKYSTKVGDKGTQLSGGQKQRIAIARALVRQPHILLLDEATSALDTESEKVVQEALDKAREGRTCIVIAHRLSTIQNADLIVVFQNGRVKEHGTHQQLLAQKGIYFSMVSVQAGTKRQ

COC(=O)/C(=C\c1ccc([N+](=O)[O-])cc1)CNCCc1ccc(OC)c(OC)c1 showed an IC50 [1, 3] of 0.89 µM and an IC10 ([1]; nci/adr-res, 48 h) of 0.05 µM.
With COC(=O)C(CNCCc1ccc(OC)c(OC)c1)C(O)c1ccc([N+](=O)[O-])cc1 (centres undefined) the “growth inhibition (GI)” value [2] was 12.9%, the IC50 [1, 3] was 85.1 µM and the IC10 ([1]; nci/adr-res, 48 h) was 15.7 µM. For the same compound, the Activity (MCF7) was “Non-toxic”.
In the case of COC(=O)/C(=C\c1ccccc1)CNCCc1ccc(OC)c(OC)c1, the “growth inhibition (GI)” value [2] is reported as 16.1%, the IC50 [1, 3] is reported as 75.8 µM and the IC10 ([1]; nci/adr-res, 48 h) is reported as 12.9 µM. The Activity (MCF7) was “Non-toxic”.
In the case of COC(=O)/C(=C\c1ccc(OC)c(OC)c1)CNCCc1ccc(OC)c(OC)c1, the “growth inhibition (GI)” value [2] is reported as 87.7%, the IC50 [1, 3] is reported as 112 µM and the IC10 ([1]; nci/adr-res, 48 h) is reported as 7.47 µM. The Activity (MCF7) was “Non-toxic”.
In the case of COC(=O)/C(=C\c1ccc2c(c1)OCO2)CNCCc1ccc(OC)c(OC)c1, the “growth inhibition (GI)” value [2] is reported as 43.3%, the IC50 [1, 3] is reported as 248 µM and the IC10 ([1]; nci/adr-res, 48 h) is reported as 13.8 µM. The Activity (MCF7) was “Non-toxic”.
In the case of COC(=O)C(CNCCc1ccc(OC)c(OC)c1)C(O)c1ccc(OC)c(OC)c1 (mixture of isomers), the “growth inhibition (GI)” value [2] is reported as 6.8% and the Activity (MCF7) is reported as “Non-toxic”.
With COC(=O)C(CNCCc1ccc(OC)c(OC)c1)C(O)c1ccccc1 (mixture of isomers) the “growth inhibition (GI)” value [2] was 11.8%, the IC50 [1, 3] was 238 µM and the IC10 ([1]; nci/adr-res, 48 h) was 14 µM. The Activity (MCF7) was “Non-toxic”.
For COC(=O)C(CNCCc1ccc(OC)c(OC)c1)C(O)c1ccc2c(c1)OCO2 (mixture of isomers), the “growth inhibition (GI)” value [2] was 10.4%, the IC50 [1, 3] was 238 µM and the IC10 ([1]; nci/adr-res, 48 h) was 20.7 µM. The Activity (MCF7) was “Non-toxic”.
For COC(=O)C(CNCCc1ccc(OC)c(OC)c1)Cc1ccccc1 (racemic), the “growth inhibition (GI)” value [2] was 3.2%, the IC50 [1, 3] was 193 µM and the IC10 ([1]; nci/adr-res, 48 h) was 15.2 µM. For the same compound, the Activity (MCF7) was “Non-toxic”.
For COC(=O)C(CNCCc1ccc(OC)c(OC)c1)Cc1ccc(OC)c(OC)c1 (racemic), the “growth inhibition (GI)” value [2] was 6.9%, the IC50 [1, 3] was 28.9 µM and the IC10 ([1]; nci/adr-res, 48 h) was 2.39 µM. For the same compound, the Activity (MCF7) was “Non-toxic”.
For COC(=O)C(CNCCc1ccc(OC)c(OC)c1)Cc1ccc2c(c1)OCO2 (racemic), the “growth inhibition (GI)” value [2] was 5.8%, the IC50 [1, 3] was 188 µM and the IC10 ([1]; nci/adr-res, 48 h) was 10.5 µM. The Activity (MCF7) was “Non-toxic”.
For COC(=O)C(CNCCc1ccc(OC)c(OC)c1)C(O)c1ccc(OC)c(OC)c1 (single isomer, unassigned; form 1), the IC50 [1, 3] was 371 µM and the IC10 ([1]; nci/adr-res, 48 h) was 38.2 µM.
For COC(=O)C(CNCCc1ccc(OC)c(OC)c1)C(O)c1ccc(OC)c(OC)c1 (single isomer, unassigned; form 2), the IC10 ([1]; nci/adr-res, 48 h) was 30.1 µM and the IC50 ([1]; nci/adr-res) was 298 µM.

— ChEMBL document CHEMBL3044602, “In vitro antiproliferative effect of -phenylethylamine derivatives and doxorubicin combinations on MCF/ADR cell lines” (Med Chem Res, 2013)
